From US8592435B2, “Nitrogen-containing six-membered aromatic ring derivatives and pharmaceutical products containing the same” (Daiichi Sankyo Company, Limited, priority 2007, dated 2013)

How the values were obtained:
[1] = test system: spinal cord injury (SCI) model; assay: Test Example 7: spinal cord injury (SCI) model in rats; assay type: in vivo, Slc: SD rats; conditions: 1 mg/kg through the tail vein once daily for 10 days, once a week until 5 weeks after surgery
From the text: According to the method of Venkata Ramesh Dasari et al. [J Neurotrauma. 2007 February; 24(2):391-410], 9-week-old female Slc: SD rats were used. Animals were anesthetized with pentobarbital and incised along the dorsal midline. After the spinal column was exposed by dorsal midline incision, the 9th thoracic vertebral arch was removed with bone scissors, paying attention not to damage the dura mater. The upper and lower bones were held in place to position the exposed spinal site just under the impactor device (where impact is applied) and then a 200-kdyn force was applied to the site. Tonic extension of the lower limbs by the spinal cord injury was checked.
The test compound used was Example Compound 65, which was administered at a dose of 1 mg/kg. Specifically, the compound was administered through the tail vein once daily for 10 days, starting from 90 min after the surgery. The motor function of lower limb was evaluated by BBB score (Basso D M, Beattie M S, Bresnahan J C: J Neurotrauma. 1995; 12:1-21) once a week until 5 weeks after surgery.

[2] = test system: microsphere (micro-embolism) model; assay: Test Example 6: rat microsphere (micro-embolism) model; assay type: in vivo, Crl:CD(SD) rats; conditions: rats, oral 1.0 mg/kg once daily for 10 days (Compound 65 also 0.1 mg/kg); 2 weeks after surgery
From the text: According to the method of Ichiro Date et al. [Journal of Neuroscience Research 78; 442-453 (2004)], 8-week-old male Crl:CD(SD) rats were used. Animals were anesthetized with halothane and midline incision was made. Right carotid artery was separated and a thread was looped around the common carotid artery and external carotid artery. The pterygopalatine artery was temporarily clipped with an aneurysm clip. The blood flow through the common carotid artery and external carotid artery was temporarily interrupted and 0.1 mL of a microsphere suspension composed of microspheres dispersed in a 30% sucrose solution (1800 microspheres/0.1 mL) was injected into the common carotid artery. After injection of the suspension, the puncture of the injection needle was filled with instant glue while the blood flow was interrupted. The blood flow was then restored and the surgical wound was sutured. Neurological symptoms were observed the day following the surgery. The animals were assigned to each treated group at random with respect to the measurements of neurological symptoms, the decrease in body weight from the previous day, and the body weight on that day.
The test compounds used were Example Compound 65, 108, 130, 135 and 137, each of which was administered at a dose of 1.0 mg/kg. Example Compound 65 was administered also at a dose of 0.1 mg/kg. Each compound was orally administered once daily for 10 days starting from the following day of the surgery. Coordinated motor functions were measured 5 times on an accelerated rota-rod (4 to 40 rpm/5 min) 2 weeks after the surgery.
Specifically, FIGS. 11 to 15 show the effect of different compounds 2 weeks after the microsphere injection (rota-rod test standard parameter). The figures show the results of rota-rod tests 2 weeks after the ischemic event in which each compound was orally administered at 1.0 mg/kg once daily for 10 days (Example Compound 65 was administered at 0.1 mg/kg or 1.0 mg/kg). What is shown in the figures is the total time of the 5 measurements on rota-rod as a standard parameter.
***: p<0.0001, Dunnett's multiple range test vs. Vehicle.

[3] = test system: myocardial infarction model (LAD occluded); assay: Test Example 5: myocardial infarction model in rats; assay type: in vivo, Slc:SD rats; conditions: oral once daily 0.01, 0.1 or 1.0 mg/kg for 28 days, 4 weeks after myocardial infarction
Method: According to the method of Masakatsu Wakeno et al. [Circulation 114: 1923-1932 (2006)], 10-week-old male Slc:SD rats were anesthetized with pentobarbital and cut open in the chest area. The left anterior descending coronary artery (LAD) was completely occluded to establish a myocardial infarction model. Sham group underwent only thoracic surgical procedure.
The test compound used was Example Compound 65, which was orally administered once daily at a dose of 0.01 mg/kg, 0.1 mg/kg or 1.0 mg/kg for 28 days starting from the day of establishment of myocardial infarction model (after awakening from anesthesia).
4 weeks after establishing myocardial infarction, animals were anesthetized with pentobarbital and monitored for their cardiachemodynamics using a mirror catheter. Subsequently, blood samples were collected from the abdominal aorta, wet lung weight was measured, and plasma BNP levels after arterial blood sampling were measured (RIA).
FIGS. 7, 8, 9 and 10 show the results of LVEDP, LVdP/dt max, lung weight and plasma […] levels, respectively.
#: P<0.05, ##: P<0.01 between sham and control by Student's t-test
*: P<0.05, **: P<0.01: vs control by Dunnett's test

[4] = test system: critical limb ischemia model (left femoral artery excised); assay: Test Example 4: lower limb ischemia (critical limb ischemia) model in mice; assay type: in vivo, Balb/c mice; conditions: oral once daily 0.1 or 1.0 mg/kg for 10 days from femoral artery excision, vs Vehicle
Method: According to the method of Ichiro Masaki [Circ Res. 90; 966-973 (2002)], the left femoral artery of Balb/c mice was excised to establish a model of critical limb ischemia (n=29 to 30).
Test compounds used were Example Compounds 65, 92, 114, 130, 135 and 136, each of which was orally administered once daily at a dose of 0.1 mg/kg or 1.0 mg/kg for 10 days starting from the day of femoral artery excision.
The results are shown in FIGS. 1 to 6 in which FIGS. 1, 2, 3, 4, 5 and 6 show the results of Example Compounds 65, 92, 114, 130, 135 and 136, respectively.
In the figures, a thick solid line indicates a Vehicle group, a thin dotted line indicates a group administered 0.1 mg/kg/day of each compound, and a thin solid line indicates a group administered 1.0 mg/kg/day of each compound.
*: P<0.05, **: P<0.01, ***: P<0.001 vs Vehicle by Wilcoxon's test.

[5] = target: T1, chemokine receptor CCR3 (Homo sapiens, UniProt P51677); assay: Affinity to chemokine receptor CCR3; assay type: binding; conditions: at a concentration of 10 μM
T1 sequence (P51677 1-355): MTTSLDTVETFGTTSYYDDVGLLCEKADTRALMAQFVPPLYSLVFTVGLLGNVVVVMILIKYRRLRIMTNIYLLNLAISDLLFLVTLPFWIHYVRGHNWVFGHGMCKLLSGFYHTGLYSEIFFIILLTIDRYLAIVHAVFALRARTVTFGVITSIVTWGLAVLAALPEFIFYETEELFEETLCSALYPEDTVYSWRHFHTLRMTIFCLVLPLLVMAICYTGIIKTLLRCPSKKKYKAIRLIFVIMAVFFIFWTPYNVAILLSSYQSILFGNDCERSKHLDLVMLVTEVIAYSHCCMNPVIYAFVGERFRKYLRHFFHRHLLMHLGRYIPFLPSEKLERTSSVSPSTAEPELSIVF
From the text: Although the compounds of the present invention are novel compounds, compounds having a partly similar skeleton are described, for example, in Published Japanese Translation of PCT International Application No. 2003-507456, WO 01/79170 and WO 00/23076.

Question: How did the “motor function of lower limb (BBB score)” value [1] turn out when Cc1nc(OCC(=O)N(C)C2CCN(Cc3ccccc3)CC2)nc(C)c1N [Compound 65, 2-(5-amino-4,6-dimethylpyrimidine-2-yloxy)-N-(1-benzylpiperidine-4-yl)-N-methylacetamide] was run?
Answer: Its value is “highly effective in ameliorating spinal cord injury”.

Question: What about the “coordinated motor functions, total time of 5 measurements on rota-rod” value [2] of the same compound?
Answer: The value was “highly effective in ameliorating ischemic cerebral infarction”.

Question: And the “end-diastolic pressure (LVEDP)” value [3]?
Answer: The value was “suppressed”.

Question: And the “maximum left ventricular contraction and diastolic velocity (LVdP/dt max)” value [3]?
Answer: Its value is “suppressed the decrease”.

Question: And the wet lung weight [3]?
Answer: The wet lung weight was “suppressed”.

Question: And the “plasma BNP levels” value ([3]; RIA)?
Answer: Its value is “suppressed the increase”.

Question: What about the “survival rate of lower limb” value [4] of the same compound?
Answer: Its value is “increased survival rate”.

Question: What about the “affinity to chemokine receptor CCR3” value [5] of the same compound?
Answer: The value was 0.0%.
